Data taken from ChEMBL document CHEMBL2413034, “Novel β-dicarbonyl derivatives as inhibitors of aminopeptidase N (APN)” (Bioorg Med Chem Lett, 2013).
Calls of active or inactive are those of the source. No cut-off for these calls is given here.

How the values were obtained:
[1] = target: Histone deacetylase 1/3/5/8 (Homo sapiens, UniProt Q13547+O15379+Q9UQL6+Q9BY41); assay: Inhibition of HDAC1/HDAC3/HDAC5/HDAC8 in human HeLa nuclear extract using Boc-Lys(acetyl)-AMC as substrate incubated for 5 mins prior to substrate measured after 30 mins by spectrophotometric analysis; format: protein assay
[2] = target: T1, Aminopeptidase N (Sus scrofa, UniProt P15145); assay: Inhibition of pig microsomal aminopeptidase N using L-leu-p-nitroanilide as substrate incubated for 5 mins prior to substrate addition measured after 30 mins by spectrophotometric analysis
T1 sequence (P15145 whole entry): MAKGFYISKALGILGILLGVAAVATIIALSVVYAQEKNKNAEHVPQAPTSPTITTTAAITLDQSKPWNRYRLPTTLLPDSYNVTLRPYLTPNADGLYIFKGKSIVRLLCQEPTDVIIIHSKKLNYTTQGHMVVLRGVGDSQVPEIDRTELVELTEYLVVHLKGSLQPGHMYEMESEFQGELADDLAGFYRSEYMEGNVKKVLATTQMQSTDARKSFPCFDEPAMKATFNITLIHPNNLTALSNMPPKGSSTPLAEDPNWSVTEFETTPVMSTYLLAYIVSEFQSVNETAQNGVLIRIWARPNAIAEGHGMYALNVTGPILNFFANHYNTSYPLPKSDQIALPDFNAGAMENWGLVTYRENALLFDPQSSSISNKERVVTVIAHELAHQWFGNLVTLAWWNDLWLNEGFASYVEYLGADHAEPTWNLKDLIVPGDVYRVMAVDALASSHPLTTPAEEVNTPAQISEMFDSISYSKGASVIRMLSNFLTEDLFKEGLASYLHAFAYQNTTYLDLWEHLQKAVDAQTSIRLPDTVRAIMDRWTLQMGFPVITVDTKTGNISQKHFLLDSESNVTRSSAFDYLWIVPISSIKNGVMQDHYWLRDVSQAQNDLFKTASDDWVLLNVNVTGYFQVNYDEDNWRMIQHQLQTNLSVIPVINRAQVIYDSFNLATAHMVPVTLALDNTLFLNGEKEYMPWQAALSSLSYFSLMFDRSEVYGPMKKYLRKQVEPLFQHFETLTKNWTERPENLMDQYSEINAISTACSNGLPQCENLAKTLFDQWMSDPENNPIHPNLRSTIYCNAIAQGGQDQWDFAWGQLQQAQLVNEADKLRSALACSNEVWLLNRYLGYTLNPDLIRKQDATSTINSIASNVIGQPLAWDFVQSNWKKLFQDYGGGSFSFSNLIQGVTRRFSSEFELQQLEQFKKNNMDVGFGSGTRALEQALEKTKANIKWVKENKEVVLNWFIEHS

[3] = Metal chelating activity assessed as affinity to Zn2+ by spectrophotometry; format: functional

With COC(=O)[C@H](Cc1ccccc1)NC(=O)CC(=O)[C@H](N)Cc1ccccc1 as the compound, how does the IC50 [1] read?
Its IC50 is > 1000 µM.

And the IC50 [2]?
Its IC50 is 7.02 µM.

Which Activity [3] does the source give for CC(C)C[C@H](NC(=O)CC(=O)[C@H](N)Cc1ccccc1)C(=O)O here?
The Activity was “Active”.

What about the IC50 [1] of the same compound?
The IC50 was > 1000 µM.

And the IC50 [2]?
Its IC50 is 1.41 µM.

What does the source list for COC(=O)[C@H](CC(C)C)NC(=O)CC(=O)[C@@H](Cc1ccccc1)NC(=O)OC(C)(C)C?
IC50 [1]: > 1000 µM; IC50 [2]: > 1000 µM

With COC(=O)CC(=O)[C@@H](Cc1ccccc1)NC(=O)OC(C)(C)C as the compound, how does the IC50 [1] read?
Its IC50 is > 1000 µM.

What about the IC50 [2] of the same compound?
The IC50 was > 1000 µM.

With COC(=O)[C@H](Cc1ccccc1)NC(=O)CC(=O)[C@@H](Cc1ccccc1)NC(=O)OC(C)(C)C as the compound, how does the IC50 [1] read?
Its IC50 is > 1000 µM.

And the IC50 [2]?
Its IC50 is > 1000 µM.

Which results are given for N[C@H](Cc1ccccc1)C(=O)CC(=O)OCc1ccccc1?
IC50 [1]: > 1000 µM; IC50 [2]: 711 µM

Which IC50 [1] does the source give for CC(C)(C)OC(=O)N[C@H](Cc1ccccc1)C(=O)CC(=O)OCc1ccccc1 here?
Its IC50 is > 1000 µM.

And the IC50 [2]?
Its IC50 is > 1000 µM.

With COC(=O)[C@H](CC(C)C)NC(=O)CC(=O)[C@H](N)Cc1ccccc1 as the compound, how does the IC50 [1] read?
The IC50 was > 1000 µM.

What about the IC50 [2] of the same compound?
The IC50 was 5.04 µM.

For COC(=O)CC(=O)[C@H](N)Cc1ccccc1, which IC50 [1] is on record?
Its IC50 is > 1000 µM.

What about the IC50 [2] of the same compound?
Its IC50 is 984 µM.

For COC(=O)[C@@H](NC(=O)CC(=O)[C@H](N)Cc1ccccc1)c1ccccc1, which IC50 [1] is on record?
Its IC50 is > 1000 µM.

And the IC50 [2]?
Its IC50 is 6.03 µM.

What does the source list for N[C@H](Cc1ccccc1)C(=O)CC(=O)N[C@H](C(=O)O)c1ccccc1?
IC50 [1]: > 1000 µM; IC50 [2]: 3.82 µM

For COc1cc(/C=C/C(=O)CC(=O)/C=C/c2ccc(O)c(OC)c2)ccc1O [CURCUMIN], which IC50 [2] is on record?
Its IC50 is 15.5 µM.

For COC(=O)[C@@H](NC(=O)CC(=O)[C@@H](Cc1ccccc1)NC(=O)OC(C)(C)C)c1ccccc1, which IC50 [1] is on record?
The IC50 was > 1000 µM.

What about the IC50 [2] of the same compound?
The IC50 was > 1000 µM.

Which IC50 [1] does the source give for CC(C)C[C@H](NC(=O)[C@@H](O)[C@H](N)Cc1ccccc1)C(=O)O [UBENIMEX] here?
The IC50 was > 1000 µM.

For N[C@H](Cc1ccccc1)C(=O)CC(=O)N[C@@H](Cc1ccccc1)C(=O)O, which IC50 [1] is on record?
Its IC50 is > 1000 µM.

What about the IC50 [2] of the same compound?
The IC50 was 4.73 µM.
